Laboratory results reported in patent US20230242616A1, “CHEMOKINE-SELECTIVE CXCR4 ECTODOMAIN-DERIVED (POLY)PEPTIDE” (Ludwig-Maximilians-Universität München, priority 2020, published 2023).

Legend:
mouse MIF = mouse MIF (Mus musculus, UniProt P34884); assay: Dot blot with TAMRA-msR4M-L1, human versus mouse MIF; assay type: binding
Procedure: Dot blot. […] Non-specific binding was blocked with Tris-buffered saline (TBS), pH 7.4, containing 0.1% Tween-20 (TBS-T) and 1% BSA. […] Fluorescence intensities were measured at 600 nm using an Odyssey® Fc imager (LICOR Biosciences, Bad Homburg, Germany). The total intensity of each spot was automatically corrected by the individual background signal.

[1] = system: human cardiomyocytes (HCM), pAMPK; assay: MIF-triggered AMPK signaling in cardiomyocytes (MIF/CD74); assay type: cell-based; conditions: 16 nM MIF; 1- and 5-fold excess
Procedure: CD74 signaling in human cardiomyocytes. Before stimulation, medium was replaced by fresh myocyte basal medium containing 0.05% FCS and HCMs rested for 16 h. Surface CD74 expression on HCMs was verified by flow cytometry (FITC-conjugated anti-human CD74, FITC-IgG2 (isotype control) (BD Pharmingen), 1 h/4° C. in the dark, BD FACSVerse™ flow cytometer, FlowJo software). […] After treatment, cells were lysed and subjected to SDS-PAGE/Western blotting. […] Anti-rabbit horseradish peroxidase (HRP)-conjugated antibody (1:10000, GE Healthcare, Freiburg, Germany) was used for development and signals quantitated by chemiluminescence using an Odyssey® Fc imager.

[2] = system: primary human monocyte-derived macrophages; assay: Dil-LDL uptake / foam cell formation, MIF-mediated; assay type: cell-based
Procedure: Dil-LDL uptake/foam cell formation. […] After washing with imaging solution (MEM without phenol red containing 30 mM HEPES, 0.5 g/L NaHCO3, pH 7.4, and 0.2% BSA), cells were exposed to 50 μg/mL 1,1′-dioctadecyl-3,3,3′3′-tetra-methylindocarbocyanine-labeled LDL (Dil-LDL) for 30 min at 4° C. followed by incubation at 37° C. for 20 min. Cells were washed with ice-cold imaging solution (pH 3.5), fixed, and counter-stained with Hoechst 33258.

human monocytes = assay: 3D migration of monocytes elicited by MIF (time-lapse microscopy); assay type: cell-based
Description: Isolation of human peripheral blood-derived monocytes. Human peripheral blood-derived monocytes were isolated as described^14. Briefly, blood was collected from healthy donors or buffy coat obtained from the blood bank of Munich University Hospital, mixed 1:1 with PBS, and PBMCs isolated by Ficoll-Paque Plus gradient (GE Healthcare). Monocytes were purified by negative depletion using the Monocyte Isolation Kit II (Miltenyi). Monocyte purity was verified by flow cytometry using an anti-CD14 antibody (Miltenyl) and was 95-98%. […] The isolation of PBMCs from donor blood was approved by the local ethics committee of LMU Munich. 3D migration of human peripheral blood-derived monocytes by time-lapse microscopy. The 3D-migration behavior of human monocytes was assessed by time-lapse microscopy and individual cell tracking using the 3D chemotaxis μ-Slide system from Ibidi GmbH (Munich, Germany), adapting the established Ibidi dendritic cell protocol for human monocytes. […] Cell motility was monitored performing time-lapse imaging every 1 min at 37° C. for 2 h using a Leica inverted DMi8-Life Cell Imaging System equipped with a DMC2900 Digital Microscope Camera with CMOS sensor and live cell-imaging software (Leica Microsystems, Wetzlar, Germany). Images were imported as stacks to ImageJ software and analyzed with the manual tracking and chemotaxis/migration tools (Ibidi GmbH).

[3] = system: MonoMac-6 monocytes on human aortic endothelial cells (HAoECs); assay: Static monocyte adhesion, MIF-induced; assay type: cell-based; conditions: 16 nM MIF, 320 nM peptide
Procedure: Static monocyte adhesion. HAoECs were seeded at a density of 30.000 cells/well in 6 well μ-Ibidi Perfusion slides VI 0.4 (Ibidi GmbH). […] After perfusion of the chambers with fresh medium, MonoMac6 cells (1×10^6 cells/mL) in PromoCell medium were added for 30 min. Non-adhering cells were flushed away by gentle perfusion using a 30 mL syringe. To quantify adherent monocytes, 10 individual images from each treatment were acquired using a Leica DMi8 inverted microscope with a 10× objective and cells quantified using Image J.

[4] = system: carotid arteries of Apoe−/− mice; assay: Leukocyte adhesion in atherogenic carotid arteries ex vivo under flow; design: species or system mouse; conditions: injection three days before vessel preparation; physiological flow
Procedure: Fluos-msR4M-L1 staining and monocyte adhesion in atherosclerotic carotid arteries by multiphoton microscopy. Monocyte adhesion experiments in atherosclerotic carotid arteries under physiological flow conditions ex vivo have been established^14, 70. Seven-week-old Apoe^−/− mice were fed a Western-type HFD (0.2% cholesterol) for 12 weeks. […] On day 3, arteries were prepared and mounted into an arteriograph chamber as described^70. […] Mouse leukocytes isolated from the bone marrow of msR4M-L1- or vehicle-treated atherogenic Apoe^−/− mice were stained with fluorescent Green CMFDA or Red CMPTX (Thermo Fisher Scientific). […] The red- and green-stained cell pools were mixed at a 1:1 ratio and 3×10^6 cells in 6 mL perfused into the artery of msR4M-L1- or vehicle-treated mice, respectively. Arteries were scanned by MPM using a multispectral TCS SP8 DIVE instrument with filter-free 4TUNE NDD detection module (Leica) and the number of adherent and transmigrated leukocytes determined by scanning multi-photon excitation. Vessel structure (and plaques) were visualized by second harmonic generation (SHG).

Apoe−/− mice on HFD = assay: In-vivo model of early atherosclerosis
Procedure: Seven-eight-week-old female Apoe^−/− mice were randomly divided into two groups of 11-12 mice each and both groups put on a Western-type HFD (0.2% cholesterol) for 4.5 weeks. Mice develop early-to-intermediate atherosclerotic lesions in this model^39. […] At the end of the experiment, mice were sacrificed, blood collected by cardiac puncture and saved for blood cell and lipid measurements and mice transcardially perfused with saline. Hearts, proximal aortas and carotid arteries were prepared and fixed for plaque morphometry and lesion analysis.
Quantification of plaques and vessel morphometry (oil red O and H&E staining). Cut heart tissue containing aortic root were embedded in optimum cutting temperature (OCT) (Sakura Finetek, Osaka, Japan) and frozen at −80° C. Eight-μm sections were prepared for oil-red O (ORO) staining and plaque immune cell analysis. The accumulation of macrophages in aortic root lesions was determined by an anti-MAC-2 antibody followed by Cy5-conjugated secondary antibody. Nuclei were visualized with DAPI. The aortic arch was cut, fixed in 4% paraformaldehyde (PFA) and embedded in paraffin. Ten-μm sections containing the three branches (brachiocephalic, left common carotid, and left subclavian artery) were prepared and stained with hematoxylin/eosin (HE) for vessel morphometry. Images were captured with a Leica DMi8 microscope and quantified using Image J.

[5] = system: human monocyte-derived macrophages; conditions: read-out: IC50 of MIF-triggered Dil-oxLDL uptake; lower threshold of effect size roughly 50%

## CC[C@H](C)[C@H](NC(=O)[C@H](Cc1ccc(O)cc1)NC(=O)[C@H](CCCNC(=N)N)NC(=O)[C@H](CC(=O)O)NC(=O)CCCCCCCCCCCNC(=O)CCCCCNC(=O)[C@H](CCCCN)NC(=O)[C@H](CS)NC(=O)[C@H](CC(C)C)NC(=O)[C@H](Cc1ccccc1)NC(=O)[C@H](CC(N)=O)NC(=O)CNC(=O)[C@H](Cc1ccccc1)NC(=O)[C@H](Cc1ccc(O)cc1)NC(=O)[C@H](Cc1c[nH]c2ccccc12)NC(=O)[C@H](CC(N)=O)NC(=O)[C@H](C)NC(=O)[C@@H](NC(=O)[C@H](C)NC(=O)[C@@H](N)CC(=O)O)C(C)C)C(=O)N[C@@H](CS)C(=O)N[C@@H](CC(=O)O)C(=O)N[C@@H](CCCNC(=N)N)C(=O)N[C@@H](Cc1ccccc1)C(=O)N[C@@H](Cc1ccc(O)cc1)C(=O)N1CCC[C@H]1C(=O)N[C@@H](CC(N)=O)C(=O)N[C@@H](CC(=O)O)C(=O)N[C@@H](CC(C)C)C(=O)N[C@@H](Cc1c[nH]c2ccccc12)C(=O)N[C@H](C(N)=O)C(C)C [msR4M-L1]
Mouse MIF
  binding to human versus mouse MIF on dot blot: binds equally well to human and mouse MIF
[1]
  effect on MIF-upregulated pAMPK levels: not attenuated
[2]; 80 nM MIF
  effect on MIF-mediated Dil-LDL uptake: dose-dependently inhibited
[2]; Dil-LDL uptake
  inhibitory capacity compared with established MIF inhibitors: slightly better than that of ISO-1, but lower than that or NIH/IIID.9
Human monocytes
  effect on MIF-triggered 3D monocyte migration: dose-dependently attenuated
  molar excess that ablates the pro-migratory effect of MIF: 2 -fold molar excess
[3]
  effect on MIF-induced static monocyte adhesion: ablated the pro-adhesion effect of MIF
[4]
  number of adhering leukocytes: significantly reduced the number of adhering leukocytes
Apoe−/− mice on HFD; 50 μg i.p. for 4.5 weeks
  toxicity or side effects: No toxicity or side effects were noted
Apoe−/− mice on HFD; 50 μg per mouse i.p., HFD 4.5 weeks
  number of lesional macrophages (MAC-2 staining): significantly decreased number of lesional macrophages
Apoe−/− mice on HFD; 50 μg per mouse i.p., HFD 4.5 weeks, versus vehicle
  atherosclerotic lesion size in aortic arch and root: significantly decreased
[5]
  IC50: ~100 nM
